pKd: −log10 of the molar value.
Tests used:
[1] = system: GM-CSF stimulation of KG-1 cell proliferation; assay: KG-1 cell proliferation assay (MTT); format: cell-based, human
Experimental: The assay for GM-CSF is based on stimulation of proliferation of suitable cells such as KG-1 cells, a cell line established from the bone marrow of a patient with acute myelogenous leukemia. AML-193 cells can also be used in this assay. AML-193 are cells as described in B. Lange et al., Blood, 70: 192-199 (1987). Cells are incubated in microtiter plate wells with dilutions of GM-CSF for about 6 days and then incubated for about an additional 4 hours with the tetrazolium salt MTT (3-(4,5-dimethylthiozol-2-yl)-2,5-diphenyltetrazolium bromide). MTT is converted by mitochondrial dehydrogenase enzymes to a colored reaction product, formazan (Mosmann, I. (1983) J. Immunological Methods 65, 55-63). The formazan is extracted with acidified isopropanol and measured spectrophotometrically. The observed optical density is directly proportional to the log2 cell concentration. The results are expressed as ΔO.D., where ΔO.D. is the optical density of the sample minus the optical density of a baseline control lacking GM-CSF. […] The formazan is extracted with acidified isopropanol and measured spectrophotometrically. […] The results are expressed as ΔO.D., where ΔO.D. is the optical density of the sample minus the optical density of a baseline control lacking GM-CSF. […]

[2] = system: GM-CSF receptors on KG-1 cells; assay: GM-CSF receptor binding assay on KG-1 cells; parameters: species or system human; details: 2700 sites/cell, read-out: Kd, low affinity site
Experimental: GM-CSF is radioiodinated by the method of Bolton and Hunter (Bolton, A. E. & Hunter, W. M. (1973) Biochem. J. 133, 529-539) and purified by gel filtration on a Sephadex G-25 column (PD-10, Pharmacia). The resulting ^125 I-GM-CSF has a specific radioactivity of about 1-3×10^6μCi/μMole and a stoichiometry of 0.4-1.2 moles ^125 I per mole of GM-CSF.
The samples are incubated at about 22° C. or 4° C. for 1 hour or 2 hours, respectively. Centrifugation for 21/2 minutes at 600×g yields a cell pellet which is washed twice with IMDM-10% FCS.
To measure the displacement of ^125 I-GM-CSF from receptors by polyclonal antibodies, antisera or pre-immune sera are included in the binding assays. Antibodies that recognize GM-CSF are incubated for about 10 minutes with ^125 I-GM-CSF prior to initiating binding by the addition of KG-1 cells, AML-193 cells or placental membranes. The sheep polyclonal antibody 1418, which recognized the GM-CSF receptor, is pre-incubated for about 10 minutes with KG-1 cells, AML-193 cells or placental membranes. Binding is initiated by ^125 I-GM-CSF addition.
GM-CSF (an article of commerce available, e.g., from Genzyme Corporation, Boston, Mass.) was radioiodinated by the method of Bolton and Hunter [Bolton, A. E. & Hunter, W. M., Biochem., J., 133: 529-539 (1973)] and purified by gel filtration on a Sephadex G-25 column (PD-10, Pharmacia). […]

[3] = target: GM-CSF receptors on placental membranes; assay: GM-CSF receptor binding assay on placental membranes
Experimental: Placental membranes are prepared by homogenization, centrifugation to remove the 100×g fraction, and thorough washing of the 27,300×g fraction. Protease inhibitors may be present in the homogenization and wash buffers. […] Following incubation for about 1 hour at about 22° C., samples are centrifuged for about 21/2 minutes at 800×g and the placental membrane pellet washed twice with IMDM-10% FCS. Cell pellets are counted on a gamma counter. Saturating concentrations of unlabeled GM-CSF are added to control assays to measure non-specific binding. To measure the displacement of ^125 I-GM-CSF from receptors by polyclonal antibodies, antisera or pre-immune sera are included in the binding assays. Antibodies that recognize GM-CSF are incubated for about 10 minutes with ^125 I-GM-CSF prior to initiating binding by the addition of KG-1 cells, AML-193 cells or placental membranes. The sheep polyclonal antibody 1418, which recognized the GM-CSF receptor, is pre-incubated for about 10 minutes with KG-1 cells, AML-193 cells or placental membranes. Binding is initiated by ^125 I-GM-CSF addition. Placental membranes were prepared by homogenization, centrifugation to remove the 100×g fraction, and thorough washing of the 27,300×g fraction. Protease inhibitors were present in the homogenization and wash buffers. […] Cell pellets were counted on a gamma counter. […]

pKd [3]: 9.07
Substance: ^125 I-GM-CSF: GM-CSF radioiodinated by the method of Bolton and Hunter, purified by gel filtration
biological activity compared with unlabeled GM-CSF [1]: same biological activity as unlabeled GM-CSF
pKd [2]: 9.14

From patent US5475087A, “Antagonists of human granulocyte-macrophage colony stimulating factor derived from the carboxyl terminus” (Schering Corporation, priority 1994, dated 1995)
